The test system of data set [1] is Plasmodium falciparum. Put plainly: Antiplasmodial activity against Plasmodium falciparum NF54 assessed as inhibition of parasite growth by microdilution analysis. The class given is functional, organism-based. On the technique in general: Dilution methods test growth across graded concentrations, often in twofold steps.
The test system of data set [2] is Plasmodium falciparum. As to the kind of experiment: Antiplasmodial activity against Plasmodium falciparum K1 assessed as inhibition of parasite growth by microdilution analysis. Format: functional, organism-based.
For data set [3], the target named is human dihydroorotate dehydrogenase (DHODH), mitochondrial (Homo sapiens, UniProt Q02127). As to the kind of experiment: in vitro.
Description: Inhibition of human DHODH
The subject of data set [4] is Plasmodium falciparum. As to the kind of experiment: Antiplasmodial activity against Plasmodium falciparum NF54 incubated for 48 hrs by lactate dehydrogenase assay. The class given is functional, organism-based. Particulars: NF54, 48 h.
Data set [5] concerns Plasmodium falciparum. Put plainly: Antiplasmodial activity against Plasmodium falciparum 3D7. The class given is functional, organism-based.
Data set [6] relates to Plasmodium falciparum. As to the kind of experiment: Antimalarial activity against Plasmodium falciparum FcB1. Format: functional, organism-based.

pEC50, pIC50: −log10 of the molar value. Some results are limits rather than exact numbers.

Chain of human dihydroorotate dehydrogenase (DHODH), mitochondrial (Q02127 whole entry): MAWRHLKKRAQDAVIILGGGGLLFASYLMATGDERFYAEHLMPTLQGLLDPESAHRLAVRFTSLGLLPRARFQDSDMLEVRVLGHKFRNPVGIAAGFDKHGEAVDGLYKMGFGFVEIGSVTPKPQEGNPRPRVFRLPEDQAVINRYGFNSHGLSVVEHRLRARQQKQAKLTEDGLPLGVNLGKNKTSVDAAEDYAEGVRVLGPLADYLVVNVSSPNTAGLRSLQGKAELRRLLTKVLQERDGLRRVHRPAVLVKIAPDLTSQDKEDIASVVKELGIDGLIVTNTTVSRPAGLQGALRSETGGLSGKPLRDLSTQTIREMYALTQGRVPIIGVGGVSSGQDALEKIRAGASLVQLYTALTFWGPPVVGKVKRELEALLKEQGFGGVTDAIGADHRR

For `CCN(CC)CCCC(C)Cc1ccnc2cc(Cl)ccc12` (stereo not drawn), the pIC50 in the data set on Plasmodium falciparum [1] and with Plasmodium falciparum [2] was 5.52 in each case.
As for `Cc1c(Cc2cnc(C(F)(F)F)nc2)c[nH]c1C(=O)NC1CC1`, the pIC50 (commonly −log10 of the IC50, conventionally taken in molar units) in data set [3] is less than 4.00.
Compound `Cc1ccc(S(=O)(=O)N2CCN(c3nc4cc(Cl)ccc4n3Cc3ccccc3)CC2)cc1` showed a pIC50 in the data set on Plasmodium falciparum [4] of 5.28.
Turning to `CCOC(=O)c1[nH]c(C)c(Cc2ccc(OCC)cc2)c1C`, in the data set with Plasmodium falciparum [5], the pEC50 (in general, −log10 of the EC50, conventionally taken in molar units) was 6.64. The compound also gave a pIC50 in data set [3] of less than 4.00.
Consider `CC[C@H]1OC(=O)[C@H](C)[C@@H](O[C@H]2C[C@@](C)(OC)[C@@H](O)[C@H](C)O2)[C@H](C)[C@@H](O[C@@H]2O[C@H](C)C[C@H](N(C)C)[C@H]2O)[C@](C)(O)C[C@@H](C)CN(C)[C@H](C)[C@@H](O)[C@]1(C)O` [AZITHROMYCIN], for which the pIC50 in the data set with Plasmodium falciparum [5] is 5.58.
`CCOC(=O)c1[nH]c(C)c(Cc2ccc(C(F)(F)F)cc2)c1C` showed a pEC50 with Plasmodium falciparum [5] of 7.21. The pIC50 in data set [3] was less than 4.00.
In the data set on Plasmodium falciparum [4], `O=C1CN(c2nc3cc(Cl)ccc3n2Cc2ccccc2)CCN1` had a pIC50 of less than 6.00.
In turn, `CCOC(=O)c1[nH]c(C)c(Cc2ccc(C(F)(F)F)nc2)c1C` gave a pEC50 in the data set with Plasmodium falciparum [5] of 8.05. In data set [3], this compound gave a pIC50 of less than 4.00.
In the data set with Plasmodium falciparum [4], `CC(=O)N1CCN(c2nc3cc(Cl)ccc3n2Cc2ccccc2)CC1` had a pIC50 of less than 6.00.
With `CCN(CC)CCCC(C)Nc1cccc2cc(Cl)ccc12` (stereo not drawn), the pIC50 with Plasmodium falciparum [1] and in the data set with Plasmodium falciparum [2] was 5.52 in each case.
Compound `C[C@H]1[C@H](C)CC[C@]2(C(=O)NCCCN3CCN(CCCNCc4ccc(O)cc4)CC3)CC[C@]3(C)C(=CC[C@@H]4[C@@]5(C)CC[C@H](O)C(C)(C)[C@@H]5CC[C@]43C)[C@H]12` (single isomer, unassigned) gave a pIC50 in the data set on Plasmodium falciparum [6] of 7.10.
Take `Cc1[nH]c(C(=O)NC2CC2)c(C)c1Cc1ccc(C(F)(F)F)nc1`: the pIC50 in data set [3] is less than 4.00.
In the data set with Plasmodium falciparum [6], `C[C@H]1[C@H](C)CC[C@]2(C(=O)O)CC[C@]3(C)C(=CC[C@@H]4[C@@]5(C)CC[C@H](O)C(C)(C)[C@@H]5CC[C@]43C)[C@H]12` [URSOLIC ACID] had a pIC50 of 4.28.

Values taken from ChEMBL document CHEMBL5331119, “Basic Nitrogen (BaN) Is a Key Property of Antimalarial Chemical Space” (J Med Chem, 2023).
